Several values for one entry are separate records, joined by “and”; a condition that tells them apart may be missing. Equal entries are not always repeated.

Test [1] deals with Muscarinic acetylcholine receptor M3 (Cavia porcellus) (UniProt Q8VH26). Conditions: Urinary bladder.
Description: The compound was tested for urinary bladder contraction ability in guinea pig.
For test [2], the target named is Muscarinic acetylcholine receptor (Homo sapiens) (UniProt P20309+P08173+P11229+P08172+P08912).
The target of test [3] is Muscarinic acetylcholine receptor M3 (Cavia porcellus) (UniProt Q8VH26). Conditions: Urine.
Description: Urinary bladder contraction ability in guinea pig by intravenous dose

Muscarinic acetylcholine receptor M3 (Cavia porcellus), sequence (Q8VH26 1-587): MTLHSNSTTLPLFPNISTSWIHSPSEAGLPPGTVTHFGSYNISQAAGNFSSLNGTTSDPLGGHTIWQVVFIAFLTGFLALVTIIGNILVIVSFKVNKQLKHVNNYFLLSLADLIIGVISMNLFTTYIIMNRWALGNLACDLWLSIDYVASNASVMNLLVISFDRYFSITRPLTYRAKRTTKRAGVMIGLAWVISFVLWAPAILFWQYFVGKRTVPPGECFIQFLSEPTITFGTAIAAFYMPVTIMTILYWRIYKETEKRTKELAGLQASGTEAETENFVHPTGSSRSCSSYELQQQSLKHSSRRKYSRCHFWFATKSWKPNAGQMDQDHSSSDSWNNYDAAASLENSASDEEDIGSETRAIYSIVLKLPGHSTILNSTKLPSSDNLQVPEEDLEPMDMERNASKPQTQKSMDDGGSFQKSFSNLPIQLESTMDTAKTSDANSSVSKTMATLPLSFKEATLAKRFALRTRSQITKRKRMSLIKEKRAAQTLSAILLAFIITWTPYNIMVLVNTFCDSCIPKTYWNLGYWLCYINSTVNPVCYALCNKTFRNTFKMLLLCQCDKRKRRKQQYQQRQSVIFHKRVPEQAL

In the case of `O=C1OC(Cn2cc[n+]3c2CCC3)CC1(c1ccccc1)c1ccccc1` (stereo not given), the ID50 in test [1] stood at 2.1 mg/kg; in test [2], 5.5 mg/kg.
As for `O=C1OC(Cn2cc[n+]3ccccc23)CC1(c1ccccc1)c1ccccc1` (stereo not given), the ID50 stood at 5.2 mg/kg in test [1] and 8 mg/kg in test [2].
With `CC(C)c1n(CC2CC(c3ccccc3)(c3ccccc3)C(=O)O2)cc[n+]1C` (stereo not given), the ID50 came out at 0.03 mg/kg in test [3] and 0.02 mg/kg in test [2].
Take `CCCc1nccn1CC1CC(c2ccccc2)(c2ccccc2)C(=O)O1` (stereo not given): the ID50 in test [1] is 12.5 mg/kg; in test [2], > 100 mg/kg.
Turning to `CCN(CC)CC1CC(c2ccccc2)(c2ccccc2)C(=O)O1` (stereo not given), the ID50 in test [3] was 16.2 mg/kg; in test [2], > 100 mg/kg.
As for `CC1CCC[n+]2ccn(CC3CC(c4ccccc4)(c4ccccc4)C(=O)O3)c21` (stereo not given), the ID50 amounted to 0.045 mg/kg in test [1] and 0.12 mg/kg in test [2].
Turning to `Cc1ccc[n+]2ccn(CC3CC(c4ccccc4)(c4ccccc4)C(=O)O3)c12` (stereo not given), the ID50 is 1.7 mg/kg in test [3] and 4.42 mg/kg in test [2].
For `O=C1OC(Cn2cccn2)CC1(c1ccccc1)c1ccccc1` (stereo not given), the ID50 in test [1] is > 10 mg/kg; in test [2], 3.8 mg/kg.
On to `CCc1nccn1CC1CC(c2ccccc2)(c2ccccc2)C(=O)O1` (stereo not given), for which, in test [1], the ID50 was 20 mg/kg and 8.5 mg/kg.
In the case of `C[N+](C)(C)CC1CC(c2ccccc2)(c2ccccc2)C(=O)O1` (stereo not given), the values for the ID50 in test [3] and in test [2] were 0.64 mg/kg and 4.6 mg/kg, respectively.
`CC(C)c1nccn1CC1CC(c2ccccc2)(c2ccccc2)C(=O)O1` (stereo in doubt; 44): the ID50 in test [1] was 30 mg/kg; in test [2], > 100 mg/kg.
The like results for `CC(C)(C)c1nccn1CC1CC(c2ccccc2)(c2ccccc2)C(=O)O1` (stereo not given) were, in that order, 1.3 mg/kg and 0.74 mg/kg.
As for `CC(C)c1nccn1C[C@H]1CC(c2ccccc2)(c2ccccc2)C(=O)O1`, the ID50 in test [1] was 1.9 mg/kg; in test [2], 167 mg/kg.
The like results for `CC(C)c1nccn1CC1CC(c2ccccc2)(c2ccccc2)C(=O)O1` (stereo in doubt; 22) were, in that order, 3.6 mg/kg and 152 mg/kg.
Consider `CCc1n(CC2CC(c3ccccc3)(c3ccccc3)C(=O)O2)cc[n+]1C` (stereo not given), for which the ID50 in test [3] was 0.27 mg/kg; in test [2], 0.67 mg/kg.
Turning to `C[n+]1ccn(CC2CC(c3ccccc3)(c3ccccc3)C(=O)O2)c1C(C)(C)C` (stereo not given), the ID50 in test [1] amounted to 0.28 mg/kg; in test [2] it was 0.29 mg/kg.
`CN(C)CC1CC(c2ccccc2)(c2ccccc2)C(=O)O1` (stereo not given): the ID50 in test [3] is > 10 mg/kg; in test [2] it was 61.6 mg/kg.
Regarding `CN1[C@@H]2CC[C@H]1C[C@@H](OC(=O)C(CO)c1ccccc1)C2` (stereo not given in full), the ID50 in test [1] worked out at 0.15 mg/kg.
With `CCc1nccn1C[C@H]1CC(c2ccccc2)(c2ccccc2)C(=O)O1`, the results for the ID50 in test [3] and in test [2] were 1.3 mg/kg and 5.3 mg/kg, respectively.
Consider `CCCc1n(CC2CC(c3ccccc3)(c3ccccc3)C(=O)O2)cc[n+]1C` (stereo not given), for which the ID50 in test [1] stood at 0.9 mg/kg; in test [2], 0.54 mg/kg.
As to `Cc1nccn1CC1CC(c2ccccc2)(c2ccccc2)C(=O)O1` (stereo not given), the ID50 in test [1] and in test [2] was 29 mg/kg throughout.
